According to ChEMBL document CHEMBL1133440, “Identification of a chemical tool for the orphan nuclear receptor FXR” (J Med Chem, 2000):

Target: T1, Bile acid receptor (Homo sapiens) (UniProt Q96RI1)
T1 sequence (whole entry): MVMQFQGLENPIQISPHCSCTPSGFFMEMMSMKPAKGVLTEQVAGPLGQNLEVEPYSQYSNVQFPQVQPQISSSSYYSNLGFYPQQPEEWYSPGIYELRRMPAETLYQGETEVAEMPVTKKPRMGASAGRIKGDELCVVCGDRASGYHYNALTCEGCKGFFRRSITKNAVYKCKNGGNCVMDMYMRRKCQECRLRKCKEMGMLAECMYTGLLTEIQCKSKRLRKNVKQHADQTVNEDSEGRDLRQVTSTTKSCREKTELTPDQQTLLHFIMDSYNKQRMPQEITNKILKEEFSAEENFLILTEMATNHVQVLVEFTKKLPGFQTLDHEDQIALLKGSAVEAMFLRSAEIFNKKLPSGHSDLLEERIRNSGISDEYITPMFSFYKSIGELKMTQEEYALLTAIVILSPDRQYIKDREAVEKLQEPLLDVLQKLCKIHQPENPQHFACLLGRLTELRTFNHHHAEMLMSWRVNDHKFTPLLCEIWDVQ

With `CC(C)c1onc(-c2c(Cl)cccc2Cl)c1COc1ccc(/C=C/c2cccc(C(=O)O)c2)c(Cl)c1` as the compound, how does the RE read?
Its RE is 1.4.
